Test results from US9546164B2 (GENENTECH, INC., priority 2013, dated 2017).
pIC50: −log10 of the molar value. Where two headings read alike, the source gives them in different places.

Legend:
[1] = biological target: T1, NaV1.5 (Homo sapiens (Human), UniProt Q14524)
Experimental: (§1) The following patch voltage clamp electrophysiology studies were performed on representative compounds of the invention using human embryonic kidney cells (HEK), permanently transfected with an expression vector containing the full-length cDNA coding for the desired human sodium channel α-subunit, grown in culture media containing 10% FBS, 1% PSG, and 0.5 mg/mL G418 at 37° C. with 5% CO2. […] The β1 subunit was coexpressed in both the NaV1.7 and NaV1.5 cell lines.
(§2) Sodium currents were measured rising the patch clamp technique in the whole-cell configuration using either a PatchXpress automated voltage clamp or manually using an Axopatch 200B (Axon Instruments) or Model 2400 (A-M systems) amplifier. […] The pipette was filled with a solution comprised of: 5 mM NaCl, 10 mM CsCl, 120 mM CsF, 0.1 mM CaCl2, 2 mM MgCl2, 10 mM HEPES, 10 mM EGTA; and adjusted to pH 7.2 with CsOH. The external solution had the following composition: 140 mM NaCl, 5 mM KCl, 2 mM CaCl2, 1 mM MgCl2, 10 mM HEPES; and adjusted to pH 7.4 with NaOH. In some studies, the external sodium was reduced by equimolar replacement with choline. Osmolality in the CsF internal and NaCl external solutions was adjusted to 300 mOsm/kg and 310 mOsm/kg with glucose, respectively. All recordings were performed at ambient temperature in a bath chamber with a volume of 150 μL. Control sodium currents were measured in 0.5% DMSO. Controls and representative compounds of the invention were applied to the recording chamber through a 4-pinch or 8-pinch valve bath perfusion system manufactured by ALA Scientific Instruments.
(§3) Currents were recorded at 40 kHz sampling frequency, filtered at 5 Hz, and stored using a Digidata-1322A analogue/digital interface with the pClamp software (Axon instruments). Series resistance compensation was applied (60-80%). […] All statistics in this study are given as mean±SD.
(§4) The membrane potential was maintained at a voltage where reactivation of the channel is complete (which was −60 mV for both NaV1.7 and NaV1.5). The voltage is then stepped back to a very negative (Vhold=150 mV) voltage for 20 ms and then a test poise is applied to quantify the compound block. The 20 ms brief repolarization was long enough for compound-free channels to completely recover from fast inactivation, but the compound-bound channels recovered more slowly such that negligible recovery could occur during this interval. The percent decrease in sodium current following wash-on of compound was taken as the percent block of sodium channels.

[2] = biological target: hNav1.7 (Homo sapiens (Human), UniProt Q15858); experiment: Tritiated sulfonamide competitive binding to membranes from cells expressing hNav1.7 and the β1 subunit; conditions: read-out: Ligand Binding Assay; 100 pM [3H]compound, membranes with hNav1.7 and β1 subunit, 18 h, room temperature;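 further: Filter-bound radioactivity counted by liquid scintillation, nonspecific binding defined with excess unlabelled ligand, IC50 fitted to percent inhibition of specific binding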
[3] = biological target: NaV1.7 (Homo sapiens (Human), UniProt Q15858); experiment: Patch voltage clamp electrophysiological assay (EP), NaV1.7; type: cell-based; conditions: HEK-293 cells stably expressing human NaV1.7 with β1 subunit, whole-cell patch clamp, holding −60 mV
Experimental: Electrophysiological Assay (EP) (In vitro Assay)
Control sodium currents were measured in 0.5% DMSO.
Series resistance compensation was applied (60-80%).

[4] = biological target: T1, NaV1.5; experiment: Patch voltage clamp electrophysiological assay (EP), NaV1.5; conditions: read-out: NaV1.5 EP; HEK-293 cells stably expressing human NaV1.5 with β1 subunit, whole-cell patch clamp, holding −60 mV
Experimental: as §1, §2, §3, §4

T1 sequence (Q14524 whole entry): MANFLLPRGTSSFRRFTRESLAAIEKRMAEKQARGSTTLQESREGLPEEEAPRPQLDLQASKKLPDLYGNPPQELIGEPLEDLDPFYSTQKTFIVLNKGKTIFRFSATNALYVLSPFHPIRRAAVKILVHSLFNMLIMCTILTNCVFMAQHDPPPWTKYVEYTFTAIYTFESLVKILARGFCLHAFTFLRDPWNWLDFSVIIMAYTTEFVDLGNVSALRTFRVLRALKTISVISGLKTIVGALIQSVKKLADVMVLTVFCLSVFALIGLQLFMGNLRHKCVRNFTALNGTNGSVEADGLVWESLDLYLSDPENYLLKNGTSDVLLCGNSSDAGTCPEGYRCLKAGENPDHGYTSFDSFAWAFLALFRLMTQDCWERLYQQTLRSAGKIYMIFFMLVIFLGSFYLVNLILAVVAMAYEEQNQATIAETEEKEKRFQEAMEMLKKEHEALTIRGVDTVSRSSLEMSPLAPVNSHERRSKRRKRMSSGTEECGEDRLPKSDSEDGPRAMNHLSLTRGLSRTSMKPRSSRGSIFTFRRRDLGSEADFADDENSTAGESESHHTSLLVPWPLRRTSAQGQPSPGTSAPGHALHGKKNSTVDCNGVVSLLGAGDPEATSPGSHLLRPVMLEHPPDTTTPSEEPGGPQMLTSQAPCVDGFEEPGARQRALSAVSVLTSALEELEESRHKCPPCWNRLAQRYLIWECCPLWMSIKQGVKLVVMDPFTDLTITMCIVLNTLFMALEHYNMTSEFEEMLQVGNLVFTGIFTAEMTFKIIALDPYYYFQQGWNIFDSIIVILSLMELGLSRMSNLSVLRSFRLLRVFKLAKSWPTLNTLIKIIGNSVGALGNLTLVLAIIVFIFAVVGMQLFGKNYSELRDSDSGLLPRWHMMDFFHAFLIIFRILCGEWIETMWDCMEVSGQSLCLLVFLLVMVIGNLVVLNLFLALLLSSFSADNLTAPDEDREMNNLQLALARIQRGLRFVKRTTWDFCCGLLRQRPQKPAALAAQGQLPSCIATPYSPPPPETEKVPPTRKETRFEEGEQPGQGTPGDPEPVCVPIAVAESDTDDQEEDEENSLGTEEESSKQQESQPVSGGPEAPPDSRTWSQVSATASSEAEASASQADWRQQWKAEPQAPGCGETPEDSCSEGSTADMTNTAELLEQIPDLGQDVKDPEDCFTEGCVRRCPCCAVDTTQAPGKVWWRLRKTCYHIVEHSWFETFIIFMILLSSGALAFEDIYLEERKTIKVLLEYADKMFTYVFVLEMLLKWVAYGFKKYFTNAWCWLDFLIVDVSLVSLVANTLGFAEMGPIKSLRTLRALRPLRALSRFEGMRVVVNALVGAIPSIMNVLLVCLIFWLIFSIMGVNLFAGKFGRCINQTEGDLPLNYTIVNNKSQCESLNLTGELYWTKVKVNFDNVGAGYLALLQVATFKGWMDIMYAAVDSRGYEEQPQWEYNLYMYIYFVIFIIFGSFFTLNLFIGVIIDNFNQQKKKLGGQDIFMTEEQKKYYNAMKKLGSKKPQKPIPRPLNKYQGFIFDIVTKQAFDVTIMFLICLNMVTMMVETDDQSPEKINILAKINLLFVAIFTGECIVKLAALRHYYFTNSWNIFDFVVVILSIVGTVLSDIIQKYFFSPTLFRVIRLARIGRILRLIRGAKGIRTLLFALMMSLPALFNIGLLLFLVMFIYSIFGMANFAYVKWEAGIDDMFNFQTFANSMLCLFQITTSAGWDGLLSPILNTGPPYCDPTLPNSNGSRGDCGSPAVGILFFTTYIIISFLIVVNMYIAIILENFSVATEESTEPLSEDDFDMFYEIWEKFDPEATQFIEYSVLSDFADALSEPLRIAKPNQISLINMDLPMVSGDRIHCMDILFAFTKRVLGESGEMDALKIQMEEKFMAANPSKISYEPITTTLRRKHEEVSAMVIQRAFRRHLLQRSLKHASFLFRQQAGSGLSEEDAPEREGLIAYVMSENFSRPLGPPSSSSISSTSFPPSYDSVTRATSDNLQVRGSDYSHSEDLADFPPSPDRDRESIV
NaV1.7, sequence (Q15858 other isoform, or with tags, fused parts or gaps): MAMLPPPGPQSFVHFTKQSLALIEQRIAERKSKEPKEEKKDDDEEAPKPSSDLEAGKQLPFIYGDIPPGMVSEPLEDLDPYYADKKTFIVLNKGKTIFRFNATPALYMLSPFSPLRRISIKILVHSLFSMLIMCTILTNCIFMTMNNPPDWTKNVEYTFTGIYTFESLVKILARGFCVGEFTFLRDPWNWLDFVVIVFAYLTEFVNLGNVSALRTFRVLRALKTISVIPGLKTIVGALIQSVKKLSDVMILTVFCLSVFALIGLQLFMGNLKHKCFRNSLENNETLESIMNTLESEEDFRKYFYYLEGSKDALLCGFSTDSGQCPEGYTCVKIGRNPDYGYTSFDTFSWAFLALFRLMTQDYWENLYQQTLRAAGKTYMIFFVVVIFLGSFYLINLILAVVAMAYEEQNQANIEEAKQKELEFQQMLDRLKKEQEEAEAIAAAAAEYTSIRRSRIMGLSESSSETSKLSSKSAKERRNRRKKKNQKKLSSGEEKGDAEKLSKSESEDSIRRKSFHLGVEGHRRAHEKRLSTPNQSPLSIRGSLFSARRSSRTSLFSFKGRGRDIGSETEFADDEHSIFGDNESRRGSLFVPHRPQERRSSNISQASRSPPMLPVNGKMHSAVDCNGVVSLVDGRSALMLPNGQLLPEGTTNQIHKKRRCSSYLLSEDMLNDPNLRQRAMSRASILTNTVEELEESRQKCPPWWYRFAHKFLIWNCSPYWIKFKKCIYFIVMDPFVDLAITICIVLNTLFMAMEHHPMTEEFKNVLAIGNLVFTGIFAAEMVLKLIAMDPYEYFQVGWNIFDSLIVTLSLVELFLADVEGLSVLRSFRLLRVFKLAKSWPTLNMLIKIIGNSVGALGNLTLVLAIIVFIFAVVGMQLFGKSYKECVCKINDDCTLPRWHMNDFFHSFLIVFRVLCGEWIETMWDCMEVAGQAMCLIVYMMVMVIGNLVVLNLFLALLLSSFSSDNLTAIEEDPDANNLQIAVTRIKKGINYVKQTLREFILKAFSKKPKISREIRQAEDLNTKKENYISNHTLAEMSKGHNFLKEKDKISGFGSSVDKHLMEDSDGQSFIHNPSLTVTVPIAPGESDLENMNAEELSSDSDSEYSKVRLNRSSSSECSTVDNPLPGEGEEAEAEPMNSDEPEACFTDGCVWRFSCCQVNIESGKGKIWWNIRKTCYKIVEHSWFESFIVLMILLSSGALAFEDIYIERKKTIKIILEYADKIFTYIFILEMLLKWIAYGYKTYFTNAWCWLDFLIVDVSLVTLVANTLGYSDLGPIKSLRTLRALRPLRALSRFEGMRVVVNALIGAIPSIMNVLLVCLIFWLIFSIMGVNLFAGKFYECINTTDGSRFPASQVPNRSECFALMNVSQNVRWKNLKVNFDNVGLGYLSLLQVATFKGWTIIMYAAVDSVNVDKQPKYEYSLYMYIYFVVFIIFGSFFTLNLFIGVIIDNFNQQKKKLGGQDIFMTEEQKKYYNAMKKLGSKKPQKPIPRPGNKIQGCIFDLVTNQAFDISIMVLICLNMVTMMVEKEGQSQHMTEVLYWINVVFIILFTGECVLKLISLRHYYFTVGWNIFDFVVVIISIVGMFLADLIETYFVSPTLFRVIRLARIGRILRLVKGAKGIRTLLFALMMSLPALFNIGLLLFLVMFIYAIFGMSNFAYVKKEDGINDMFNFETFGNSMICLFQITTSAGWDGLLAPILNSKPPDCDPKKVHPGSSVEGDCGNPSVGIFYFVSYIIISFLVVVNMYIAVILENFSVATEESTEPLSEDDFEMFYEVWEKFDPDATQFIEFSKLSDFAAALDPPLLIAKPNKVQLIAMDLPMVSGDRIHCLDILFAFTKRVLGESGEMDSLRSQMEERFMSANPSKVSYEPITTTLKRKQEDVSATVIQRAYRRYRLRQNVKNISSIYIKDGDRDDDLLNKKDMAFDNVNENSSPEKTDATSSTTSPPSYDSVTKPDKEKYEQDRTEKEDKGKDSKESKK
NaV1.7, sequence (Q07699 19-218 partner): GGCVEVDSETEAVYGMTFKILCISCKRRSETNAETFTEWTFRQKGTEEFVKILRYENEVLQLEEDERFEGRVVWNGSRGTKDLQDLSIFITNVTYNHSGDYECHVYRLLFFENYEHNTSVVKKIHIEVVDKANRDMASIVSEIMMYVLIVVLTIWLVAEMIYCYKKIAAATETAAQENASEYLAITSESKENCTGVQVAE
hNav1.7, sequence (Q15858 other isoform, or with tags, fused parts or gaps): as the sequence (Q15858 other isoform, or with tags, fused parts or gaps) above
hNav1.7, sequence (Q07699 19-218 partner): as the sequence (Q07699 19-218 partner) above

SMILES: O=C(NS(=O)(=O)N1CCC1)c1cc(C2CC2)c(OCC2CC3CCC(C2)N3C(c2ccccc2)c2ccccc2)cc1F (stereo not shown) [Example 49, N-(azetidin-1-ylsulfonyl)-4-((8-benzhydryl-8-azabicyclo[3.2.1]-octan-3-yl)methoxy)-5-cyclopropyl-2-fluorobenzamide]
- pIC50 [1]: 6.70

SMILES: O=C(NS(=O)(=O)C1CC1)c1cc(C2CC2)c(OCC2CCN(Cc3cc(Cl)cc(Cl)c3)CC2)cc1F [Example 259, 5-Cyclopropyl-N-(cyclopropylsulfonyl)-4-((1-(3,5-dichlorobenzyl)piperidin-4-yl)methoxy)-2-fluorobenzamide]
- pIC50 [2]: 8.66
- pIC50 [3]: 7.64
- pIC50 [4]: 6.96
